Experimental data as given in US12618835B2, “Multiplex microelectrode array for detection of proteases as biomarkers” (Kansas State University Research Foundation, priority 2021, dated 2026).
Where no end group is shown, it is not given here. [ ]: non-standard residue; d: D form. The star is where a group is joined. aminomethylferrocene = [Fe+2].c1cc[c-](CN*)c1.c1cc[cH-]c1; Ava = NCCCCC(=O)O

Test system: cathepsin B in human serum
Test: Electrochemical (ACV) proteolysis of peptide-Fc on Au MEA by diluted human serum, with and without spiked rhCB
Assay type: biochemical
Method: Electrochemical Experiments. Electrochemical experiments were performed on a specially designed electrochemical cell mounted on a large copper block for temperature control by circulating thermostatic silicone liquid through the internal channels. The thermal circulator (Julabo, Allentown, PA) was set to achieve a temperature of 38.6° C. Two buffer solutions, 0.5×PB (pH=7.4) and 25 mM MES (pH=5.0), were used. In some experiments, the rhCB was activated by incubation in 25 mM MES buffer (pH=5.0) containing 5 mM DTT for 15 min. About 10 uL activated cathepsin B solution was added to the electrochemical cell containing 815 uL buffer solution (i.e., 0.5×PB with pH=7.4) as the electrolyte. Fc signal on the Au surface was detected by alternating current voltammetry (ACV) with an AC frequency of 300 Hz and a voltage amplitude of 100 mV on a DC ramp from −0.45 V to 0.20 V vs. MSE. Electrochemical measurements were performed using an IVIUM n-Stat potentiostat (Eindhoven, The Netherlands), which allows measurement of up to ten independent working electrodes simultaneously versus a common MSE reference electrode and a common Pt coil counter electrode.
Electrochemical Detection of Cathepsin B Activity in Human Serum. To assess the activity of cathepsin B in HS, we compared the kinetic proteolysis curves of 5% HS in 0.5×PB with and without activation by the electrochemical method. The 5% HS concentration is slightly higher than the 2.5% used in ELISA measurements to ensure that a clear exponential decay can be observed in electrochemical experiments. To minimize errors, three Au MEA chips were prepared side-by-side for three sets of experiments, i.e., (i) non-activated 5% HS in 0.5×PB, (ii) activated 5% HS in 0.5×PB, and (iii) the blank 0.5×PB. […] Based on equation (2), the concentration of the active form of cathepsin B in non-activated and activated sample (equivalent to 100% HS) can be calculated by: […]
Electrochemical Assessment of Effective Cathepsin B Activity Spiked in Human Serum. […] The data were recorded over 8 channels of the peptide-Fc modified Au MEA simultaneously. […]

Substance: H2N-(CH2)4-CO-Pro-Leu-Ala-Phe-Val-Ala-NH-CH2-Fc ([Ava]PLAFVA-aminomethylferrocene) [Peptide H-15]
- 1/τ (activated 5% HS in 0.5×PB (DTT/MES), 8 channels): (33.2±3.0)×10^−4 s^−1
- 1/τ (non-activated 5% HS in 0.5×PB spiked with 0.40 nM naturally active cathepsin B (1.0 nM non-activated rhCB)): (12.99±1.66)×10^−4 s^−1
- 1/τ (non-activated 5% HS in 0.5×PB spiked with 1.0 nM activated cathepsin B): (68.4±7.53)×10^−4 s^−1
